The target in the assay is T1, A2 Adenosine receptor (Rattus norvegicus, UniProt P30543).
T1 construct: membrane preparations derived from the rat phaeochromocytoma cell line PC 12; host or cells: PC 12 (rat phaeochromocytoma)
Kind of assay: A2 Adenosine receptor affinity test: displacement of [3H]-NECA from PC 12 cell membranes. The class given is binding. From the text: (a) A2 Adenosine receptor affinity test This test involves the ability of a test adenosine antagonist to displace the known adenosine mimetic agent [^3 H]-N-ethylcarboxamidoadenosine (NECA) from binding sites on membrane preparations derived from the rat phaeochromocytoma cell line PC 12 (available from the Beatson Institute, Glasgow). […] The membrane preparation is obtained as follows: Frozen pellets of PC12 cells are washed twice with ice cold, buffered, physiological saline and the cells recovered by centrifugation (1500 G) at 3° C. The separated cells are then suspended in hypotonic solution (distilled water), allowed to stand on ice for 30 minutes and are then carefully homogenized using a standard high-speed homogeniser with periodic ice-cooling to obtain a fine suspension. […] A1280). The mixture is then incubated at 37° C. After 20 minutes, the reaction is terminated by dilution with ice-cold buffer and transfer onto ice. The material obtained containing the cell membranes is recovered by centrifugation and washed by resuspension in buffer and recentrifugation. The pellet produced is then resuspended in ice-cold buffer using a hand-driven homogenizer. The resultant membrane suspension is frozen and stored under liquid nitrogen until required. […] After incubation, the samples are rapidly filtered over glass-fibre mats and the filter mats are washed to remove non-receptor-bound radioligand. Receptor-bound radioligand entrapped on the filter mats is then determined by liquid scintillation counting. Filtration and washing are carried out using a conventional vacuum filtration cell harvester. The specific binding (defined as the difference between the total binding and the non-specific binding) in the presence of the particular test compound is determined and compared with the control value.
In general terms: Loss of bound radioactivity is the signal in a displacement assay; it reports binding, not function.

[1] abbreviates: read-out: displacement of control binding.

T1 sequence (P30543 whole entry): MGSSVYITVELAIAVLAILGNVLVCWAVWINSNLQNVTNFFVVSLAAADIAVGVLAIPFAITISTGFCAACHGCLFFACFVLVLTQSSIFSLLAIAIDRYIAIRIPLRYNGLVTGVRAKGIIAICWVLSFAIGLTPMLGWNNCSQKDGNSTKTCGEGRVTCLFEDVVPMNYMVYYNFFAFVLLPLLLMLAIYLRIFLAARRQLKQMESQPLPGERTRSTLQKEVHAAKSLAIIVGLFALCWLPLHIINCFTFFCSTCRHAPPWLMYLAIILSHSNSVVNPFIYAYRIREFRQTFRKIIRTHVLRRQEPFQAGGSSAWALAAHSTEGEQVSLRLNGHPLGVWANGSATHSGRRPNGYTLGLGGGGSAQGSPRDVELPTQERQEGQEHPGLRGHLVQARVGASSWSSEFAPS

In the case of `CN(C)CCN(C)S(=O)(=O)c1ccc(CCNc2nc(N)n3nc(-c4ccco4)nc3n2)cc1` [Example 1, 7-Amino-2-(2-furyl)-5-[2-[(4-dimethylaminoethyl-N,methylsulphonamido)phenyl]ethyl]amino[1,2,4]-triazolo[1,5-a][1,3,5]-triazine], the IC50 ([3H]-NECA displacement, PC 12 membranes, inferred from displacement at 10^-5 M and 10^-7 M, read-out: pIC50 (indicated by % displacement values) (converted)) is under 100 nM. Under setting [1], the inhibition at 0.1 µM stood at 77.7% and the inhibition at 10 µM came to 93.7%.

The values are drawn from patent publication US5380714A, “2-furyl-triazalo [1,5-a]-[1,3,5]triazines and pyrazolo [2,3-a][1,3,5]triazines” (Imperial Chemical Industries PLC, priority 1991, dated 1995).
